In paper PMC9436075, “A structural basis for the functional differences between the cytosolic and plastid phosphoglucose isomerase isozymes” (PLoS ONE, 2022):

Key:
TaPGIc = molecular target: T1, TaPGIc (Triticum aestivum, UniProt Q1PBI3); assay: PGI activity inhibition, dose-response; type: biochemical; settings: read-out: IC50E4P
T1 construct: gene GPI; cytosolic PGI, CTD 510-567, HLHM 444-466; homodimer
T1 sequence (Q1PBI3 1-567): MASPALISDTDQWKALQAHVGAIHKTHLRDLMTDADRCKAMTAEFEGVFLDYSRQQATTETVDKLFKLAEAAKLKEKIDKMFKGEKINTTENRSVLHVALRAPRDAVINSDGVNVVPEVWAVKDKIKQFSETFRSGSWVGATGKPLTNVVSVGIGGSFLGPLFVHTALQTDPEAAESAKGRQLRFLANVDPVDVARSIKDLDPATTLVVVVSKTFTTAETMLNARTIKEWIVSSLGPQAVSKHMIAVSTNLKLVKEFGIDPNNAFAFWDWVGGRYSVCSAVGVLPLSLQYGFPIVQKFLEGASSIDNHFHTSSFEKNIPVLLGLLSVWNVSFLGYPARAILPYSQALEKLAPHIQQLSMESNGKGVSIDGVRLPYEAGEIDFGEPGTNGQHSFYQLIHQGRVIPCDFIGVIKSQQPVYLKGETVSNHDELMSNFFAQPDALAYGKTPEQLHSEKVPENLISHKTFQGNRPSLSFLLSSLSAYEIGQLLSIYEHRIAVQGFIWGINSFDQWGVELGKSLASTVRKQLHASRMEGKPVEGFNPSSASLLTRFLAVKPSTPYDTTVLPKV

TaPGIp = molecular target: T2, TaPGIp (Triticum aestivum, UniProt A0A3B6LNA8); assay: PGI activity inhibition, dose-response; type: biochemical; settings: read-out: IC50E4P
T2 construct: gene LOC123112261; plastid PGI, CTD 467-557, transit peptide probably removed; homodimer
T2 sequence (A0A3B6LNA8 64-620): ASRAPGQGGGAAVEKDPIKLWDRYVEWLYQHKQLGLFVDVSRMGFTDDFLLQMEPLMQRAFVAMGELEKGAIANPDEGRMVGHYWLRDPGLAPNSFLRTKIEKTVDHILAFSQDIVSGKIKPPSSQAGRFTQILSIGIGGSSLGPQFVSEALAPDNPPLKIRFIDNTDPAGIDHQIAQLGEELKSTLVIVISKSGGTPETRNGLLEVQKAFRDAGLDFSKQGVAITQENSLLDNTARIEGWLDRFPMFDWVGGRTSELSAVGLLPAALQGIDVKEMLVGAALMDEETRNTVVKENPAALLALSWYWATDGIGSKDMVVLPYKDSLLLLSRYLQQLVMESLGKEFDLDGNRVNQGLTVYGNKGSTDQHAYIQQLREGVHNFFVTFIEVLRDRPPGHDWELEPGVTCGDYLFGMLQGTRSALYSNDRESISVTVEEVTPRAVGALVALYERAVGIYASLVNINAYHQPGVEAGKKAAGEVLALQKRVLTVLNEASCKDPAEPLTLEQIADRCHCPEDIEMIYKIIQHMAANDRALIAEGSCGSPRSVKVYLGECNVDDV

- IC50 (TaPGIc): 130 µM
- IC50 (TaPGIp): 760 µM
SMILES: O=C[C@H](O)[C@H](O)COP(=O)(O)O [E4P, erythrose 4-phosphate]
